Active and inactive are the calls of the source. The rule behind the calls is not given here.
How the values were obtained:
[1] = system: Rattus norvegicus; test: Neurotoxicity in Sprague-Dawley rat assessed as neurological impairment at 30 mg/kg, po measured after 2 hrs; format: toxicity, organism-based; design: dose 30 mg/kg, route oral; conditions: in vivo
[2] = system: Rattus norvegicus; test: Toxicity in Sprague-Dawley rat assessed as mortality at 900 mg/kg, ip measured after 0.5 hrs; format: organism-based; design: dose 900 mg/kg, route intraperitoneal; conditions: in vivo
[3] = system: Mus musculus; test: Anticonvulsant activity in Carworth farms No.1 albino mouse assessed as protection against maximum electroshock at 300 mg/kg, ip measured after 4 hrs; format: functional, organism-based; design: dose 300 mg/kg
[4] = system: Mus musculus; test: Neurotoxicity in Carworth farms No.1 albino mouse assessed as neurological impairment at 300 mg/kg, ip measured after 0.5 hrs; format: toxicity, organism-based; design: dose 300 mg/kg, route intraperitoneal; conditions: in vivo
[5] = system: Rattus norvegicus; test: Neurotoxicity in Sprague-Dawley rat assessed as neurological impairment at 30 mg/kg, po measured after 1 hr; format: toxicity, organism-based; design: dose 30 mg/kg, route oral; conditions: in vivo
[6] = system: Mus musculus; test: Anticonvulsant activity in Carworth farms No.1 albino mouse assessed as protection against subcutaneous metrazole-induced seizures at 30 mg/kg, ip measured after 0.5 hrs; format: functional, organism-based; design: dose 30 mg/kg
[7] = system: Mus musculus; test: Neurotoxicity in Carworth farms No.1 albino mouse assessed as neurological impairment at 100 mg/kg, ip measured after 0.5 hrs; format: toxicity, organism-based; design: dose 100 mg/kg, route intraperitoneal; conditions: in vivo
[8] = system: Mus musculus; test: Anticonvulsant activity in Carworth farms No.1 albino mouse assessed as protection against 6 Hz electric current-induced seizure at 100 mg/kg, ip measured after 0.25 hrs; format: functional, organism-based; design: dose 100 mg/kg
[9] = system: Mus musculus; test: Neurotoxicity in Carworth farms No.1 albino mouse assessed as neurological impairment at 100 mg/kg, ip measured after 2 hr; format: toxicity, organism-based; design: dose 100 mg/kg, route intraperitoneal; conditions: in vivo
[10] = system: Rattus norvegicus; test: Neurotoxicity in Sprague-Dawley rat assessed as neurological impairment at 30 mg/kg, po measured after 0.25 hrs; format: toxicity, organism-based; design: dose 30 mg/kg, route oral; conditions: in vivo
[11] = system: Rattus norvegicus; test: Neurotoxicity in Sprague-Dawley rat assessed as sedation at 900 mg/kg, ip measured after 0.5 hrs; format: toxicity, organism-based; design: dose 900 mg/kg, route intraperitoneal; conditions: in vivo
[12] = system: Mus musculus; test: Neurotoxicity in Carworth farms No.1 albino mouse assessed as neurological impairment at 30 mg/kg, ip measured after 0.5 hrs; format: toxicity, organism-based; design: dose 30 mg/kg, route intraperitoneal; conditions: in vivo
[13] = system: Mus musculus; test: Neurotoxicity in Carworth farms No.1 albino mouse assessed as neurological impairment at 30 mg/kg, ip measured after 4 hrs; format: toxicity, organism-based; design: dose 30 mg/kg, route intraperitoneal; conditions: in vivo
[14] = system: Mus musculus; test: Neurotoxicity in Carworth farms No.1 albino mouse assessed as neurological impairment at 100 mg/kg, ip measured after 0.25 hrs; format: toxicity, organism-based; design: dose 100 mg/kg, route intraperitoneal; conditions: in vivo
[15] = system: Rattus norvegicus; test: Anticonvulsant activity in Sprague-Dawley rat assessed as protection against maximum electroshock at 30 mg/kg, po measured after 0.25 hrs; format: functional, organism-based; design: dose 30 mg/kg
[16] = system: Mus musculus; test: Anticonvulsant activity in ip dosed Carworth farms No.1 albino mouse assessed as protection against 6 Hz electric current-induced seizure measured after 0.25 hrs; format: functional
[17] = system: Rattus norvegicus; test: Toxicity in Sprague-Dawley rat assessed as body weight change in protected animals at 900 mg/kg, ip measured after 0.5 hrs; format: organism-based; design: dose 900 mg/kg, route intraperitoneal; conditions: in vivo
[18] = system: Mus musculus; test: Anticonvulsant activity in Carworth farms No.1 albino mouse assessed as protection against subcutaneous metrazole-induced seizures at 100 mg/kg, ip measured after 4 hrs; format: functional, organism-based; design: dose 100 mg/kg
[19] = system: Rattus norvegicus; test: Anticonvulsant activity in Sprague-Dawley rat assessed as protection against pilocarpine-induced status at 900 mg/kg, ip measured after 0.5 hrs; format: functional, organism-based; design: dose 900 mg/kg
[20] = system: Mus musculus; test: Anticonvulsant activity in Carworth farms No.1 albino mouse assessed as protection against subcutaneous metrazole-induced seizures at 100 mg/kg, ip measured after 0.5 hrs; format: functional, organism-based; design: dose 100 mg/kg
[21] = system: Mus musculus; test: Anticonvulsant activity in Carworth farms No.1 albino mouse assessed as protection against maximum electroshock at 100 mg/kg, ip measured after 0.5 hrs; format: functional, organism-based; design: dose 100 mg/kg
[22] = species: Mus musculus; test: Anticonvulsant activity in electric shock-induced Carworth farms No.1 albino mouse assessed as time of peak effect; format: functional
[23] = system: Mus musculus; test: Anticonvulsant activity in Carworth farms No.1 albino mouse assessed as protection against subcutaneous metrazole-induced seizures at 30 mg/kg, ip measured after 4 hrs; format: functional, organism-based; design: dose 30 mg/kg
[24] = system: Rattus norvegicus; test: Anticonvulsant activity in Sprague-Dawley rat assessed as protection against maximum electroshock at 30 mg/kg, po measured after 0.5 hrs; format: functional, organism-based; design: dose 30 mg/kg
[25] = system: Rattus norvegicus; test: Toxicity in Sprague-Dawley rat assessed as body weight change in unprotected animals at 900 mg/kg, ip measured after 0.5 hrs; format: organism-based; design: dose 900 mg/kg, route intraperitoneal; conditions: in vivo
[26] = system: Mus musculus; test: Anticonvulsant activity in Carworth farms No.1 albino mouse assessed as protection against maximum electroshock at 100 mg/kg, ip measured after 4 hrs; format: functional, organism-based; design: dose 100 mg/kg
[27] = system: Mus musculus; test: Anticonvulsant activity in Carworth farms No.1 albino mouse assessed as protection against 6 Hz electric current-induced seizure at 100 mg/kg, ip measured after 4 hrs; format: functional, organism-based; design: dose 100 mg/kg
[28] = system: Rattus norvegicus; test: Neurotoxicity in Sprague-Dawley rat assessed as neurological impairment at 30 mg/kg, po measured after 0.5 hrs; format: toxicity, organism-based; design: dose 30 mg/kg, route oral; conditions: in vivo
[29] = system: Mus musculus; test: Anticonvulsant activity in Carworth farms No.1 albino mouse assessed as protection against 6 Hz electric current-induced seizure at 100 mg/kg, ip measured after 1 hrs; format: functional, organism-based; design: dose 100 mg/kg
[30] = system: Mus musculus; test: Anticonvulsant activity in Carworth farms No.1 albino mouse assessed as protection against 6 Hz electric current-induced seizure at 100 mg/kg, ip measured after 2 hrs; format: functional, organism-based; design: dose 100 mg/kg
[31] = system: Mus musculus; test: Neurotoxicity in Carworth farms No.1 albino mouse assessed as neurological impairment at 300 mg/kg, ip measured after 4 hrs; format: toxicity, organism-based; design: dose 300 mg/kg, route intraperitoneal; conditions: in vivo
[32] = system: Mus musculus; test: Anticonvulsant activity in Carworth farms No.1 albino mouse assessed as protection against maximum electroshock at 30 mg/kg, ip measured after 4 hrs; format: functional, organism-based; design: dose 30 mg/kg
[33] = system: Rattus norvegicus; test: Anticonvulsant activity in Sprague-Dawley rat assessed as protection against maximum electroshock at 30 mg/kg, po measured after 4 hrs; format: functional, organism-based; design: dose 30 mg/kg
[34] = system: Rattus norvegicus; test: Neurotoxicity in Sprague-Dawley rat assessed as neurological impairment at 30 mg/kg, po measured after 4 hrs; format: toxicity, organism-based; design: dose 30 mg/kg, route oral; conditions: in vivo
[35] = system: Mus musculus; test: Anticonvulsant activity in Carworth farms No.1 albino mouse assessed as protection against subcutaneous metrazole-induced seizures at 300 mg/kg, ip measured after 0.5 hrs; format: functional, organism-based; design: dose 300 mg/kg
[36] = system: Mus musculus; test: Anticonvulsant activity in Carworth farms No.1 albino mouse assessed as protection against subcutaneous metrazole-induced seizures at 300 mg/kg, ip measured after 4 hrs; format: functional, organism-based; design: dose 300 mg/kg
[37] = system: Rattus norvegicus; test: Anticonvulsant activity in Sprague-Dawley rat assessed as protection against maximum electroshock at 30 mg/kg, po measured after 2 hrs; format: functional, organism-based; design: dose 30 mg/kg
[38] = system: Mus musculus; test: Neurotoxicity in Carworth farms No.1 albino mouse assessed as neurological impairment at 100 mg/kg, ip measured after 1 hr; format: toxicity, organism-based; design: dose 100 mg/kg, route intraperitoneal; conditions: in vivo
[39] = system: Mus musculus; test: Neurotoxicity in Carworth farms No.1 albino mouse assessed as neurological impairment at 100 mg/kg, ip measured after 4 hrs; format: toxicity, organism-based; design: dose 100 mg/kg, route intraperitoneal; conditions: in vivo
[40] = system: Rattus norvegicus; test: Anticonvulsant activity in Sprague-Dawley rat assessed as protection against maximum electroshock at 30 mg/kg, po measured after 1 hr; format: functional, organism-based; design: dose 30 mg/kg
[41] = system: Mus musculus; test: Anticonvulsant activity in Carworth farms No.1 albino mouse assessed as protection against maximum electroshock at 30 mg/kg, ip measured after 0.5 hrs; format: functional, organism-based; design: dose 30 mg/kg
[42] = system: Mus musculus; test: Anticonvulsant activity in Carworth farms No.1 albino mouse assessed as protection against maximum electroshock at 300 mg/kg, ip measured after 0.5 hrs; format: functional, organism-based; design: dose 300 mg/kg
[43] = system: Mus musculus; test: Anticonvulsant activity in Carworth farms No.1 albino mouse assessed as protection against 6 Hz electric current-induced seizure at 100 mg/kg, ip measured after 0.5 hrs; format: functional, organism-based; design: dose 100 mg/kg

O=C1NC(=O)[C@@H](c2ccccc2)N2CCCC[C@H]12
Activity [1]: Non-toxic
Activity [2]: Toxic
Activity [3]: inactive
Activity [4]: Non-toxic
Activity [5]: Non-toxic
Activity [6]: inactive
Activity [7]: Non-toxic
Activity [8]: Active
Activity [9]: Non-toxic
Activity [10]: Non-toxic
Activity [11]: Toxic
Activity [12]: Non-toxic
Activity [13]: Non-toxic
Activity [14]: Non-toxic
Activity [15]: inactive
ED50 [16]: 38.2 mg/kg
Activity [17]: -17.5 g
Activity [18]: inactive
Activity [19]: Active
Activity [20]: inactive
Activity [21]: inactive
Time [22]: 0.25 h
Activity [23]: inactive
Activity [24]: inactive
Activity [25]: -20 g
Activity [26]: inactive
Activity [27]: inactive
Activity [28]: Non-toxic
Activity [29]: Active
Activity [30]: Active
Activity [31]: Non-toxic
Activity [32]: inactive
Activity [33]: Active
Activity [34]: Non-toxic
Activity [35]: inactive
Activity [36]: inactive
Activity [37]: inactive
Activity [38]: Non-toxic
Activity [39]: Non-toxic
Activity [40]: inactive
Activity [41]: inactive
Activity [42]: inactive
Activity [43]: Active

Reference: ChEMBL document CHEMBL1944578, “Synthesis and anticonvulsant activity of novel 2,6-diketopiperazine derivatives. Part 2: Perhydropyrido[1,2-a]pyrazines” (Eur J Med Chem, 2012)
